In brackets after ≈: the same amount, converted by molar mass. Several values for one entry are separate records, joined by “and”; a condition that tells them apart may be missing. Equal entries are not always repeated. Where two headings read alike, the source gives them in different places.
Columns and labels:
Zymoseptoria tritici [1] = assay: microbe, parasite or virus in culture; assay type: cell-based
[2] = molecular target: mitochondrial succinate dehydrogenase (SDH) (Zymoseptoria tritici, UniProt F9X9V6+F9XH52+O42772); assay: biochemical; settings: IC50
Sequence of mitochondrial succinate dehydrogenase (SDH) (Zymoseptoria tritici, UniProt F9X9V6+F9XH52+O42772) (O42772 19-297): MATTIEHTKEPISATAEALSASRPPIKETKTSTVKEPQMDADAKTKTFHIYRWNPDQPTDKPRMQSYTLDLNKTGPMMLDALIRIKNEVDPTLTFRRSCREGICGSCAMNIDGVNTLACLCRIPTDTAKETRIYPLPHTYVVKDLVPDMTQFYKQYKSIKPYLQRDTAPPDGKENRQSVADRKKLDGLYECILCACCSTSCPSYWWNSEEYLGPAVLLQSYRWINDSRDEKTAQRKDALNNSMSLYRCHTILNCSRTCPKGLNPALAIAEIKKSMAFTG
Sequence of mitochondrial succinate dehydrogenase (SDH) (Zymoseptoria tritici, UniProt F9X9V6+F9XH52+O42772) (F9XH52 44-187): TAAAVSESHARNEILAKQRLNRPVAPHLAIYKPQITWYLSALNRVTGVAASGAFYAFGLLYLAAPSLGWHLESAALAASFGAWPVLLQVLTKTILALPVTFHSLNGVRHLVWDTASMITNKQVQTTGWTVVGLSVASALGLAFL
Sequence of mitochondrial succinate dehydrogenase (SDH) (Zymoseptoria tritici, UniProt F9X9V6+F9XH52+O42772) (F9X9V6 1-193): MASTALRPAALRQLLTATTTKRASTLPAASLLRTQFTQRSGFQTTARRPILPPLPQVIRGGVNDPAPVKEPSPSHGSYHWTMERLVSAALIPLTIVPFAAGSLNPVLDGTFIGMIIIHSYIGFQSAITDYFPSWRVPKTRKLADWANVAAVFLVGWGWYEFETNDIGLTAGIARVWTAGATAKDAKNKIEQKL
Sequence of mitochondrial succinate dehydrogenase (SDH) (Zymoseptoria tritici, UniProt F9X9V6+F9XH52+O42772) (F9WWR1 29-643 partner): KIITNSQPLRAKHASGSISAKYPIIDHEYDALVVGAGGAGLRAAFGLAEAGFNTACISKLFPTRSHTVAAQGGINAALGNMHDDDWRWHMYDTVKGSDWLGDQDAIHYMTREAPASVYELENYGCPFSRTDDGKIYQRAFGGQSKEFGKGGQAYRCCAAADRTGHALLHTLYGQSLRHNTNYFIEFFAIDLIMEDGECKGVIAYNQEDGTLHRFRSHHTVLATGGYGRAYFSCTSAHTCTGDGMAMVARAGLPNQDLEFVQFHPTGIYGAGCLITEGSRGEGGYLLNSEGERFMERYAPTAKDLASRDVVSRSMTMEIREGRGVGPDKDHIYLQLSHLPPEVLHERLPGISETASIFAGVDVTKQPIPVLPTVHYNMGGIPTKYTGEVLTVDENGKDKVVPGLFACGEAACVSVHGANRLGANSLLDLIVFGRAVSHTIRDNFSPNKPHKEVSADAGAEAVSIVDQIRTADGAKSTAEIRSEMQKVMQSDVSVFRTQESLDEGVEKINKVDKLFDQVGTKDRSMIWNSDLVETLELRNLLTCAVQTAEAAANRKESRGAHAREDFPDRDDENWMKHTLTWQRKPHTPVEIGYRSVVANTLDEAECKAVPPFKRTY

[3] = molecular target: mitochondrial succinate dehydrogenase (SDH); assay: biochemical; set-up: species or system Zymoseptoria tritici
Zymoseptoria tritici [4] = settings: in vivo
[5] = Zymoseptoria tritici, read-out: EC50 Median
[6] = Zymoseptoria tritici, read-out: EC50 Range

## Cn1cc(C(=O)Nc2ccc(F)cc2-c2ccc(Cl)c(Cl)c2)c(C(F)F)n1 [Bixafen, bixafen]
Zymoseptoria tritici [1]
  EC50: 0.03 µg/mL (≈ 0.0724 µM)
  EC50 Median: 0.096 µg/mL (≈ 0.232 µM)
Zymoseptoria tritici [1]; Zymoseptoria tritici
  EC50: 0.03 µg/mL (≈ 0.0724 µM)
Zymoseptoria tritici [1]; [5]
  EC50: 0.063 µg/mL (≈ 0.152 µM)
Zymoseptoria tritici [1]; [6]
  EC50: 0.017 to 0.406 µg/mL (≈ 0.041 to 0.98 µM)
[2]
  IC50: 33 nM and 38 nM
[3]
  IC50: 31 nM and 49 nM
Zymoseptoria tritici [4]
  Control efficacy: 0%
  application rate at which strain was well controlled: 3 mg/L
  application rate at which strains were well controlled: 10 mg/L

## O=C(Nc1ccccc1-c1ccc(Cl)cc1)c1cccnc1Cl [Boscalid, boscalid]
Zymoseptoria tritici [1]; Zymoseptoria tritici
  EC50: 0.16 µg/mL (≈ 0.466 µM)

## N#Cc1c(Cl)c(Cl)c(Cl)c(C#N)c1Cl [Chlorothalonil, chlorothalonil]
Zymoseptoria tritici [1]
  Resistance factor (RF): 0.8 and 1.2 and 1.3 and 1.4 and 0.7
  sensitivity of strains (in words): sensitive
Zymoseptoria tritici [1]; Zymoseptoria tritici
  EC50: 0.13 µg/mL (≈ 0.489 µM)

## [Cl][Sn]([c]1ccccc1)([c]1ccccc1)[c]1ccccc1 [Fentin Cl, fentin chloride]
Zymoseptoria tritici [1]
  EC50: 0.07 µg/mL

## O=C(NCCc1ncc(C(F)(F)F)cc1Cl)c1ccccc1C(F)(F)F [Fluopyram, fluopyram]
Zymoseptoria tritici [1]
  EC50: 0.20 µg/mL (≈ 0.504 µM)
  EC50 Median: 0.215 µg/mL (≈ 0.542 µM)
Zymoseptoria tritici [1]; Zymoseptoria tritici
  EC50: 0.2 µg/mL (≈ 0.504 µM)
Zymoseptoria tritici [1]; [5]
  EC50: 0.19 µg/mL (≈ 0.479 µM)
Zymoseptoria tritici [1]; [6]
  EC50: 0.08 to 7.78 µg/mL (≈ 0.202 to 19.6 µM)
Zymoseptoria tritici [4]
  application rate providing control: ≥ 30 mg/L
  in planta control (in words): not controlled

## Cn1cc(C(=O)Nc2ccccc2-c2cc(F)c(F)c(F)c2)c(C(F)F)n1 [Fluxapyroxad]
Zymoseptoria tritici [1]
  EC50: 0.04 µg/mL (≈ 0.105 µM)
  RF in comparison with reference strain IPO323: < 10
Zymoseptoria tritici [1]; Zymoseptoria tritici
  EC50: 0.04 µg/mL (≈ 0.105 µM)

## Cc1cc(OC(C)C)ccc1C(=O)C(C)(C)NC(=O)c1sccc1C [Isofetamid, N‐[1,1‐dimethyl‐2‐(4‐isopropoxy‐o‐tolyl)‐2‐oxoethyl]‐3‐methylthiophene‐2‐carboxamide]
Zymoseptoria tritici [1]
  EC50: 0.06 µg/mL (≈ 0.167 µM)
  EC50 Median: 0.096 µg/mL (≈ 0.267 µM)
Zymoseptoria tritici [1]; [5]
  EC50: 0.09 µg/mL (≈ 0.25 µM)
Zymoseptoria tritici [1]; Zymoseptoria tritici, read-out: high EC50 values (upper end of the sensitivity range)
  EC50: > 50 µg/mL
Zymoseptoria tritici [4]
  in planta control (in words): not controlled

## CC(C)CC(C)c1sccc1NC(=O)c1cn(C)nc1C(F)(F)F (stereo not drawn) [Penthiopyrad, penthiopyrad]
Zymoseptoria tritici [1]; Zymoseptoria tritici
  EC50: 0.05 µg/mL (≈ 0.139 µM)

## Cc1cccc(N(C)C(=S)Oc2ccc3ccccc3c2)c1 [Tolnaftate, tolnaftate]
Zymoseptoria tritici [1]
  growth in the presence of tolnaftate: none of these strains was able to grow
Zymoseptoria tritici [1]; Zymoseptoria tritici
  EC50: 0.17 µg/mL (≈ 0.553 µM)
